Reference: patent publication US7183267B2, “β-lactamase inhibitors and methods of use thereof” (priority 2003, dated 2007)
In brackets after ≈: the same amount, converted by molar mass.

Legend:
[1] = tested on: methicillin sensitive S. aureus ATCC 25923 (MSSA); test: MIC assay, broth microdilution, MSSA; type: cell-based; conditions: Staphylococcus aureus, 24 h
Method: (3) methicillin sensitive S. aureus ATCC 25923 (MSSA). This strain was obtained from ATCC and was used as a control.
The strains were processed according to procedures recommended by ATCC, or procedures that are routinely used. Single colonies of each organism were picked for purification to generate pure working cultures. Prior to each experiment each strain was subcultured on a fresh Mueller-Hinton agar plate (MHA).
Inocula for the MIC assays were prepared by transferring a tiny portion of one colony from a MHA plate to 2 ml of Mueller-Hinton broth (MHB) such that the estimated cell density was about 10^7 colony forming unit (CFU)/ml. This cell suspension was then further diluted 10-fold (to 10^6 CFU/ml) by transferring the 2 ml cell suspension to 18 ml of MHB. Addition of 50 μl of this dilute cell suspension to 50 μl of growth medium yielded the desired cell density, namely about 5×10^4 CFU/well, or 5×10^5 CFU/ml.
The MIC value of oxacillin was determined using the broth microdilution procedure recommended by the National Committee of Clinical Laboratory Standards (NCCLS, 2000).
The MIC experiments were performed in duplicate in 96-well microtiter plates using MHB. A stock solution of 2.6 mg/0.5 ml was prepared in dimethylsulfoxide (DMSO). A total of 8 two-fold serial dilutions were made with DMSO. Initial oxacillin doses used were (μg/ml): 64, 32, 16, 8, 4, 2, 1, and 0.5. Doses were adjusted in the confirmatory experiment, if needed, in order to establish an actual MIC value.
(§1) To each well of a 96 well microtiter plate was added 47.5 μl of MHB. A volume of 2.5 μl of each dilution of oxacillin was then transferred to appropriate wells containing the medium. All wells, except the sterility control wells, were then inoculated with 50 μl of a diluted cell suspension to give a final volume of 100 μl and a final cell density of 5×10^4 CFU/well. The volume in the sterility control wells was adjusted to 100 μl with MHB. A sterile pipette tip was used to mix the contents of each well (one tip was used going from the low to the high concentration in the same column). The microtiter plates were covered with the lids and were placed in large Stratagene Big Blue plates (Cat. # 400041). Four large kimwipes moistened with tap water were placed near the edges of the Stratagene plates to prevent evaporation of the medium. The microtiter plates were incubated for at least 24 hours at 35° C. The plates were then evaluated for growth in each well. Controls included: medium sterility and negative control (medium and bacteria only).
The procedure used to determine the antimicrobial activity of the compounds of the present invention was identical to the broth microdilution procedure described above with the exception of the preparation of the stock solutions. Stock solution at concentration of 40.96 mg/0.5 ml was prepared in DMSO for each of the compounds. A total of 8 two-fold dilutions were then made in DMSO. A volume of 2.5 μl of each dilution was delivered to appropriate wells. The initial doses used were (μg/ml): 512, 256, 128, 64, 32, 16, 8, and 4.
(§2) A numerical code was used to evaluate the extent of growth as indicated below. • 0: absence of growth • 1: barely visible (faint) growth • 2: fair growth but less than the negative solvent control • 3: growth is equivalent to the negative solvent control.
(§3) The lowest dose at which no visible growth is observed was determined to be the MIC value.
MIC assays were performed with oxacillin and the four compounds. Each of the compounds was tested at the following 8 doses (μg/ml): 512, 256, 128, 64, 32, 16, 8, and 4. Oxacillin was tested at the following 8 doses (μg/ml): 64, 32, 16, 8, 4, 2, 1, and 0.5.

[2] = tested on: methicillin resistant S. aureus ATCC 33591 (MRSA-ATCC); test: Matrix system: oxacillin plus β-lactamase inhibitor, MRSA-ATCC; type: cell-based; conditions: for MIC of oxacillin: matrix study
Method: as §1, §2, §3
The effect of the four compounds of the present invention on oxacillin resistance of the MRSA strains was determined using a matrix system. The β-lactamase inhibitors were tested at 5 doses against up to eleven concentrations of oxacillin. […] A 96-well microtiter plate was used for the matrix system. The procedure was identical to that described above for the MIC determination, with the exception that both oxacillin and one each of the β-lactamase inhibitors was added, 2.5 μl each, to the wells prior to addition of the test organisms.
Matrix Study:Oxacillin and Compound FL201 with MRSA-ATCC
Matrix Study: Oxacillin and Compound Fl202 with MRSA-ATCC

O=C(OCc1ccccc1)c1cc(B(O)O)cc([N+](=O)[O-])c1 [Compound F1201]
MIC [1]: 32 µg/mL (≈ 106 µM) | MIC of oxacillin ([2]; with compound 1 μg/ml): 16 µg/mL | MIC of oxacillin ([2]; with compound 2 μg/ml): 2 µg/mL | MIC of oxacillin ([2]; with compound 4 μg/ml): 0.5 µg/mL | MIC of oxacillin ([2]; with compound 8 μg/ml): <0.064 µg/mL | extent of growth (numerical code) ([2]; oxacillin 0 μg/ml + compound 1 μg/ml): 3 | extent of growth (numerical code) ([2]; oxacillin 0 μg/ml + compound 2 μg/ml): 3 | extent of growth (numerical code) ([2]; oxacillin 0 μg/ml + compound 4 μg/ml): 2 | extent of growth (numerical code) ([2]; oxacillin 0 μg/ml + compound 8 μg/ml): 1 | extent of growth (numerical code) ([2]; oxacillin 0 μg/ml + compound 16 μg/ml): 0 | extent of growth (numerical code) ([2]; oxacillin 0.064 μg/ml + compound 1 μg/ml): 1 | extent of growth (numerical code) ([2]; oxacillin 0.064 μg/ml + compound 2 μg/ml): 1 | extent of growth (numerical code) ([2]; oxacillin 0.064 μg/ml + compound 4 μg/ml): 1 | extent of growth (numerical code) ([2]; oxacillin 0.064 μg/ml + compound 8 μg/ml): 0 | extent of growth (numerical code) ([2]; oxacillin 0.064 μg/ml + compound 16 μg/ml): 0 | extent of growth (numerical code) ([2]; oxacillin 0.125 μg/ml + compound 1 μg/ml): 1 | extent of growth (numerical code) ([2]; oxacillin 0.125 μg/ml + compound 2 μg/ml): 1 | extent of growth (numerical code) ([2]; oxacillin 0.125 μg/ml + compound 4 μg/ml): 1 | extent of growth (numerical code) ([2]; oxacillin 0.125 μg/ml + compound 8 μg/ml): 0 | extent of growth (numerical code) ([2]; oxacillin 0.125 μg/ml + compound 16 μg/ml): 0 | extent of growth (numerical code) ([2]; oxacillin 0.25 μg/ml + compound 1 μg/ml): 1 | extent of growth (numerical code) ([2]; oxacillin 0.25 μg/ml + compound 2 μg/ml): 1 | extent of growth (numerical code) ([2]; oxacillin 0.25 μg/ml + compound 4 μg/ml): 1 | extent of growth (numerical code) ([2]; oxacillin 0.25 μg/ml + compound 8 μg/ml): 0 | extent of growth (numerical code) ([2]; oxacillin 0.25 μg/ml + compound 16 μg/ml): 0 | extent of growth (numerical code) ([2]; oxacillin 0.5 μg/ml + compound 1 μg/ml): 1 | extent of growth (numerical code) ([2]; oxacillin 0.5 μg/ml + compound 2 μg/ml): 1 | extent of growth (numerical code) ([2]; oxacillin 0.5 μg/ml + compound 4 μg/ml): 0 | extent of growth (numerical code) ([2]; oxacillin 0.5 μg/ml + compound 8 μg/ml): 0 | extent of growth (numerical code) ([2]; oxacillin 0.5 μg/ml + compound 16 μg/ml): 0 | extent of growth (numerical code) ([2]; oxacillin 1 μg/ml + compound 1 μg/ml): 1 | extent of growth (numerical code) ([2]; oxacillin 1 μg/ml + compound 2 μg/ml): 1 | extent of growth (numerical code) ([2]; oxacillin 1 μg/ml + compound 4 μg/ml): 0 | extent of growth (numerical code) ([2]; oxacillin 1 μg/ml + compound 8 μg/ml): 0 | extent of growth (numerical code) ([2]; oxacillin 1 μg/ml + compound 16 μg/ml): 0 | extent of growth (numerical code) ([2]; oxacillin 2 μg/ml + compound 1 μg/ml): 1 | extent of growth (numerical code) ([2]; oxacillin 2 μg/ml + compound 2 μg/ml): 0 | extent of growth (numerical code) ([2]; oxacillin 2 μg/ml + compound 4 μg/ml): 0 | extent of growth (numerical code) ([2]; oxacillin 2 μg/ml + compound 8 μg/ml): 0 | extent of growth (numerical code) ([2]; oxacillin 2 μg/ml + compound 16 μg/ml): 0 | extent of growth (numerical code) ([2]; oxacillin 4 μg/ml + compound 1 μg/ml): 1 | extent of growth (numerical code) ([2]; oxacillin 4 μg/ml + compound 2 μg/ml): 0 | extent of growth (numerical code) ([2]; oxacillin 4 μg/ml + compound 4 μg/ml): 0 | extent of growth (numerical code) ([2]; oxacillin 4 μg/ml + compound 8 μg/ml): 0 | extent of growth (numerical code) ([2]; oxacillin 4 μg/ml + compound 16 μg/ml): 0 | extent of growth (numerical code) ([2]; oxacillin 8 μg/ml + compound 1 μg/ml): 1 | extent of growth (numerical code) ([2]; oxacillin 8 μg/ml + compound 2 μg/ml): 0 | extent of growth (numerical code) ([2]; oxacillin 8 μg/ml + compound 4 μg/ml): 0 | extent of growth (numerical code) ([2]; oxacillin 8 μg/ml + compound 8 μg/ml): 0 | extent of growth (numerical code) ([2]; oxacillin 8 μg/ml + compound 16 μg/ml): 0 | extent of growth (numerical code) ([2]; oxacillin 16 μg/ml + compound 1 μg/ml): 0 | extent of growth (numerical code) ([2]; oxacillin 16 μg/ml + compound 2 μg/ml): 0 | extent of growth (numerical code) ([2]; oxacillin 16 μg/ml + compound 4 μg/ml): 0 | extent of growth (numerical code) ([2]; oxacillin 16 μg/ml + compound 8 μg/ml): 0 | extent of growth (numerical code) ([2]; oxacillin 16 μg/ml + compound 16 μg/ml): 0 | extent of growth (numerical code) ([2]; oxacillin 32 μg/ml + compound 1 μg/ml): 0 | extent of growth (numerical code) ([2]; oxacillin 32 μg/ml + compound 2 μg/ml): 0 | extent of growth (numerical code) ([2]; oxacillin 32 μg/ml + compound 4 μg/ml): 0 | extent of growth (numerical code) ([2]; oxacillin 32 μg/ml + compound 8 μg/ml): 0 | extent of growth (numerical code) ([2]; oxacillin 32 μg/ml + compound 16 μg/ml): 0 | extent of growth (numerical code) ([2]; oxacillin 64 μg/ml + compound 1 μg/ml): 0 | extent of growth (numerical code) ([2]; oxacillin 64 μg/ml + compound 2 μg/ml): 0 | extent of growth (numerical code) ([2]; oxacillin 64 μg/ml + compound 4 μg/ml): 0 | extent of growth (numerical code) ([2]; oxacillin 64 μg/ml + compound 8 μg/ml): 0 | extent of growth (numerical code) ([2]; oxacillin 64 μg/ml + compound 16 μg/ml): 0
